Active and inactive are the calls of the source. The calls are words filed in the database; no cut-off is given here.
Legend:
[1] = system: Ehrlich; assay: Cytotoxicity against mouse EAC cells; type: functional, cell-based
[2] = system: L1210; assay: Cytotoxicity against mouse L1210 cells; type: functional, cell-based

Row | Compound | Activity [1] | Activity [2]
1 | CCCCC/C=C\C[C@@]1(O)C=C(Cl)C(=O)/C1=C/[C@H](OC(C)=O)[C@H](CCCC(=O)OC)OC(C)=O | Active | Active
2 | CC/C=C\C/C=C\C[C@@]1(O)C=C(Cl)C(=O)/C1=C/[C@H](OC(C)=O)[C@H](CCCC(=O)OC)OC(C)=O | Active | Active
